molecular target: T1, human DGAT1 (Homo sapiens, UniProt O75907); assay: DGAT1 CPM Assay; type: biochemical; settings: human DGAT1, CPM fluorescence, 1 hour incubation at room temperature
T1 sequence (O75907 1-488): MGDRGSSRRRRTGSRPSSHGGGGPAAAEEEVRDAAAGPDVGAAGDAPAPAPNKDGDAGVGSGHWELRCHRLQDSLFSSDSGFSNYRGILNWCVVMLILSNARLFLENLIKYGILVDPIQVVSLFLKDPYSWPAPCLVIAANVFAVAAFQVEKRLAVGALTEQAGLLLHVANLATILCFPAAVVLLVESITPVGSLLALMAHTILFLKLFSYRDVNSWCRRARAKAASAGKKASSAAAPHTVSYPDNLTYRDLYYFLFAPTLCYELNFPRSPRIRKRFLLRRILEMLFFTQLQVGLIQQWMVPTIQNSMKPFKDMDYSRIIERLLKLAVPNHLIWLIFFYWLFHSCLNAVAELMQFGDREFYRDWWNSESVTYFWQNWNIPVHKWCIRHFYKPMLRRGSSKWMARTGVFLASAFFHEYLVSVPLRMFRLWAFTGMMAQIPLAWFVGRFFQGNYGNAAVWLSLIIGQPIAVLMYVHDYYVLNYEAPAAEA
Protocol: 20 uL of 90 uM CPM reagent in 90% ethanol was added after 1 hour incubation at room temperature.

Row | SMILES | IC50 [nM]
1 | CC(C)(COC1CCN(c2ccc(-c3nc4cc(C#N)ccc4[nH]3)cn2)CC1)C(=O)O [Example 62] | 90
2 | C[C@]1(C(=O)O)CC[C@@H](OC2CCN(c3ccc(-c4nc5ncc(Cl)cc5[nH]4)cn3)CC2)CC1 [Example 108] | 125
3 | O=C(O)c1cccc(OC2CCN(c3ccc(-c4nc5cc(C(F)(F)F)ccc5[nH]4)cn3)CC2)c1 [Example 114, 3-[(1-{5-[5-(trifluoromethyl)-1H-benzimidazol-2-yl]pyridin-2-yl}piperidin-4-yl)oxy]benzoic acid] | 9
4 | O=C(O)[C@H]1C[C@@H](OC2CCN(c3ccc(-c4nc5ccc(C(F)(F)F)cc5[nH]4)cn3)CC2)C1 [Example 32, cis-3-[(1-{5-[6-(trifluoromethyl)-1H-benzimidazol-2-yl]pyridin-2-yl}piperidin-4-yl)oxy]cyclobutanecarboxylic acid] | 9
5 | C[C@]1(C(=O)O)CC[C@@H](OC2CCN(c3ccc(-c4nc5cc(F)ccc5[nH]4)cn3)CC2)CC1 [Example 111] | 21
6 | COc1ccc2[nH]c(-c3ccc(N4CCC(OCC(C)(C)C(=O)O)CC4)nc3)nc2n1 [Example 66] | 140
7 | Cc1nc(N2CCC(O[C@H]3CC[C@H](CC(=O)O)CC3)CC2)ccc1-c1nc2ccccc2[nH]1 [Example 10] | 7900
8 | C[C@]1(C(=O)O)CC[C@H](OC2CCN(c3ccc(-c4nc5ccc(Cl)cc5[nH]4)cn3)CC2)CC1 [Example 102] | 4
9 | O=C(O)C[C@H]1CC[C@H](OC2CCN(c3ccc(-c4nc5cc(Cl)ccc5[nH]4)cn3)CC2)CC1 [Example 19] | 3
10 | O=C(NS(=O)(=O)c1ccc(Cl)cc1)[C@H]1CC[C@H](OC2CCN(c3ccc(-c4nc5cc(F)ccc5[nH]4)cn3)CC2)CC1 [Example 89] | 4
11 | C[C@]1(C(=O)O)CC[C@@H](OC2CCN(c3ccc(-c4nc5ccc(C(F)(F)F)cc5[nH]4)cn3)CC2)CC1 [Example 98, cis-1-methyl-4-[(1-{5-[6-(trifluoromethyl)-1H-benzimidazol-2-yl]pyridin-2-yl}piperidin-4-yl)oxy]cyclohexanecarboxylic acid] | 4
12 | O=C(O)[C@@H]1[C@@H]2C[C@@H](OC3CCN(c4ccc(-c5nc6cc(C(F)(F)F)ccc6[nH]5)cn4)CC3)C[C@@H]21 [Example 136] | 6
13 | O=C(NS(=O)(=O)c1cccnc1)[C@H]1CC[C@H](OC2CCN(c3ccc(-c4nc5cc(F)ccc5[nH]4)cn3)CC2)CC1 [Example 82] | 19
14 | O=C(O)Cc1ccc(OC2CCN(c3ccc(-c4nc5cc(Cl)ccc5[nH]4)cn3)CC2)cc1 [Example 129] | 1
15 | O=C(O)C[C@H]1CC[C@@H](OC2CCN(c3ccc(-c4nc5ccc(F)cc5[nH]4)cn3)CC2)CC1 [Example 2, [cis-4-({1-[5-(6-fluoro-1H-benzimidazol-2-yl)pyridin-2-yl]piperidin-4-yl}oxy)cyclohexyl]acetic acid] | 8
16 | O=C(O)c1cccc(COC2CCN(c3ccc(-c4nc5cc(C(F)(F)F)ccc5[nH]4)cn3)CC2)c1 [Example 117] | 4
17 | O=C(O)[C@H]1[C@@H]2C[C@H](OC3CCN(c4ccc(-c5nc6cc(C(F)(F)F)ccc6[nH]5)cn4)CC3)C[C@@H]21 [Example 133, (1R,3R,5S,6r)-3-[(1-{5-[5-(trifluoromethyl)-1H-benzimidazol-2-yl]pyridin-2-yl}piperidin-4-yl)oxy]bicyclo[3.1.0]hexane-6-carboxylic acid] | 2
18 | O=C(O)[C@H]1CC[C@@H](OC2CCN(c3ccc(-c4nc5cc(Cl)ccc5[nH]4)cn3)CC2)CC1 [Example 76] | 2
19 | O=C(O)C1(COC2CCN(c3ccc(-c4nc5ccc(C(F)(F)F)cc5[nH]4)cn3)CC2)CCC1 [Example 37] | 2
20 | O=C(O)CC1CC(OC2CCN(c3ccc(-c4nc5ccc(C(F)(F)F)cc5[nH]4)cn3)CC2)C1 (centres unmarked) [Example 52] | 10
21 | O=C(O)C[C@H]1CC[C@@H](O[C@@H]2CC3C[C@H]2CN3c2ccc(-c3nc4cc(F)ccc4[nH]3)cn2)CC1 (single isomer, unassigned; enantiomer 2) [Example 29, [cis-4-({2-[5-(5-fluoro-1H-benzimidazol-2-yl)pyridin-2-yl]-2-azabicyclo[2.2.1]hept-5-yl}oxy)cyclohexyl]acetic acid enantiomer 2] | 5000
22 | O=C(O)CC1C[C@@H]2CC(OC3CCN(c4ccc(-c5nc6ccc(C(F)(F)F)cc6[nH]5)cn4)CC3)C[C@@H]2C1 (some centres unmarked) [Example 56] | 2
23 | O=C(O)C1(COC2CCN(c3ccc(-c4nc5ccc(Cl)cc5[nH]4)cn3)CC2)CCOCC1 [Example 50] | 17
24 | Cc1cc(N2CCC(O[C@H]3CC[C@@H](CC(=O)O)CC3)CC2)ncc1-c1nc2ccccc2[nH]1 [Example 13] | 147

Row | SMILES | IC50 [nM]
25 | O=C(O)[C@@H]1[C@@H]2C[C@H](OC3CCN(c4ccc(-c5nc6cc(C(F)(F)F)ccc6[nH]5)cn4)CC3)C[C@@H]21 [Example 135] | 11
26 | O=C(O)c1ccc(OC2CCN(c3ccc(-c4nc5ccc(C(F)(F)F)cc5[nH]4)cn3)CC2)nc1 [Example 123] | 2
27 | C[C@]1(C(=O)O)CC[C@H](OC2CCN(c3ccc(-c4nc5ccc(C(F)(F)F)cc5[nH]4)cn3)CC2)CC1 [Example 100] | 2
28 | Cc1ccc2[nH]c(-c3ccc(N4CCC(OCC(C)(C)C(=O)O)CC4)nc3)nc2n1 [Example 65] | 790
29 | CC(C)(COC1CCN(c2ccc(-c3nc4cc(F)c(F)cc4[nH]3)cn2)CC1)C(=O)O [Example 60] | 16
30 | O=C(O)C[C@H]1CC[C@@H](OC2CCN(c3ccc(-c4nc5nc(C(F)(F)F)ccc5[nH]4)cn3)CC2)CC1 [Example 27] | 13
31 | O=C(O)C1(COC2CCN(c3ccc(-c4nc5ccc(Cl)cc5[nH]4)cn3)CC2)CCC1 [Example 43] | 6
32 | COC(=O)C(C)(C)COC1CCN(c2ccc(-c3nc4ccccc4[nH]3)cn2)CC1 [Example 35] | 29
33 | O=C(O)C[C@H]1CC[C@H](OC2CCN(c3ccc(-c4nc5cc(F)c(F)c(Br)c5[nH]4)cn3)CC2)CC1 [Example 15] | 2
34 | O=C(O)C[C@H]1CC[C@@H](OC2CCN(c3ccc(-c4nc5ccccc5[nH]4)cn3)CC2)CC1 [Example 8] | 15
35 | O=C(NS(=O)(=O)c1ccc(C(F)(F)F)cc1)[C@H]1CC[C@H](OC2CCN(c3ccc(-c4nc5cc(F)ccc5[nH]4)cn3)CC2)CC1 [Example 85] | 9
36 | C[C@]1(C(=O)O)CC[C@@H](OC2CCN(c3ccc(-c4nc5cc(F)c(F)cc5[nH]4)cn3)CC2)CC1 [Example 106] | 15
37 | C[C@]1(C(=O)O)C[C@H](OC2CCN(c3ccc(-c4nc5cc(C(F)(F)F)ccc5[nH]4)cn3)CC2)C1 [Example 103] | 4
38 | O=C(O)c1ncc(OC2CCN(c3ccc(-c4nc5cc(Cl)ccc5[nH]4)cn3)CC2)cn1 [Example 127, 5-(1-(5-(5-chloro-1H-benzo[d]imidazol-2-yl)pyridin-2-yl)piperidin-4-yloxy)pyrimidine-2-carboxylic acid] | 100
39 | O=C(O)[C@H]1CC[C@@H](OC2CCN(c3ccc(-c4nc5cc(F)ccc5[nH]4)cn3)CC2)CC1 [Example 78] | 6
40 | O=C(O)C1(C(=O)O)CC(OC2CCN(c3ccc(-c4nc5cc(F)ccc5[nH]4)cn3)CC2)C1 [Example 93] | 71
41 | O=C(O)CC1CC(OC2CCN(c3ccc(-c4nc5ccc(C(F)(F)F)cc5[nH]4)cn3)CC2)C1 (centres unmarked) [Example 51] | 6
42 | C[C@]1(C(=O)O)CC[C@@H](OC2CCN(c3ccc(-c4nc5ccccc5[nH]4)cn3)CC2)CC1 [Example 105, cis-4-({1-[5-(1H-benzimidazol-2-yl)pyridin-2-yl}piperidin-4-yl]oxy)-1-methylcyclohexanecarboxylic acid] | 44
43 | COC(=O)c1cccc(OC2CCN(c3ccc(-c4nc5cc(C(F)(F)F)ccc5[nH]4)cn3)CC2)c1 [Example 113, Methyl 3-[(1-{5-[5-(trifluoromethyl)-1H-benzimidazol-2-yl]pyridin-2-yl}piperidin-4-yl)oxy]benzoate] | 520
44 | CC(C)(COC1CCN(c2ccc(-c3nc4cc(Cl)c(Cl)cc4[nH]3)cn2)CC1)C(=O)O [Example 64] | 2
45 | O=C(O)C[C@H]1CC[C@H](OC2CCN(c3ccc(-c4nc5ccccc5[nH]4)cn3)CC2)CC1 [Example 7] | 19
46 | Cc1ccc2[nH]c(-c3ccc(N4CCC(O[C@H]5CC[C@H](CC(=O)O)CC5)CC4)nc3)nc2n1 [Example 21] | 440
47 | O=C(O)C[C@H]1CC[C@H](OC2CCN(c3ccc(-c4nc5cc(Cl)cnc5[nH]4)cn3)CC2)CC1 [Example 20] | 61
